What all share (assay): kinase profiling panel
Type in all cases: biochemical

For assay [1], the target named is VEGFR1 (Homo sapiens, UniProt P17948). The conditions noted are these: read-out: % Activity Remaining. The source says: (§1) Protein kinase profiling against a Dundee panel of 140 protein kinases was undertaken at the International Centre for Protein Kinase Profiling. The result for each kinase was presented as a mean kinase activity of the reaction taken in triplicate relative to a control sample treated with DMSO. Assay conditions and abbreviations are available at http://www.kinase-screen.mrc.ac.uk.

The test system of assay [2] is PHK. The conditions noted are these: 1 µM.
Source text: as §1

For assay [3], the target named is S6K1 (Homo sapiens, UniProt P23443). The note with it: read-out: % Activity Remaining.
Source text: as §1

The target of assay [4] is BTK (Homo sapiens, UniProt Q06187). The conditions noted are these: read-out: % Activity Remaining.
Source text: as §1

Assay [5] deals with T1, TAK1 (Homo sapiens, UniProt O43318).
T1 sequence (O43318 1-303 limits assumed): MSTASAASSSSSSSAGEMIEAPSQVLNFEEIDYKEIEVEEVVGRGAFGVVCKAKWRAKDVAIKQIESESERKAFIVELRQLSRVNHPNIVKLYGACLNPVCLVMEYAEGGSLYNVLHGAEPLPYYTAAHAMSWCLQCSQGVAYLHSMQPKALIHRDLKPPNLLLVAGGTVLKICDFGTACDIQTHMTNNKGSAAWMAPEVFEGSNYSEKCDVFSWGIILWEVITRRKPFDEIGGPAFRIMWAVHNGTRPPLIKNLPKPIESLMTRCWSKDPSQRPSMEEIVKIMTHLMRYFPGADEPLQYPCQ
The note with it: read-out: % Activity Remaining.
Source text: as §1

The target of assay [6] is PAK6 (Homo sapiens, UniProt Q9NQU5). The conditions noted are these: read-out: % Activity Remaining.
Source text: as §1

Assay [7] concerns the target MAPKAP-K2 (Homo sapiens, UniProt P49137). The conditions noted are these: read-out: % Activity Remaining.
Source text: as §1

Assay [8] addresses PKC alpha (Homo sapiens, UniProt P17252). The conditions noted are these: read-out: % Activity Remaining.
Source text: as §1

Assay [9] addresses T2, TTK (Homo sapiens, UniProt P33981).
T2 sequence (P33981 1-857): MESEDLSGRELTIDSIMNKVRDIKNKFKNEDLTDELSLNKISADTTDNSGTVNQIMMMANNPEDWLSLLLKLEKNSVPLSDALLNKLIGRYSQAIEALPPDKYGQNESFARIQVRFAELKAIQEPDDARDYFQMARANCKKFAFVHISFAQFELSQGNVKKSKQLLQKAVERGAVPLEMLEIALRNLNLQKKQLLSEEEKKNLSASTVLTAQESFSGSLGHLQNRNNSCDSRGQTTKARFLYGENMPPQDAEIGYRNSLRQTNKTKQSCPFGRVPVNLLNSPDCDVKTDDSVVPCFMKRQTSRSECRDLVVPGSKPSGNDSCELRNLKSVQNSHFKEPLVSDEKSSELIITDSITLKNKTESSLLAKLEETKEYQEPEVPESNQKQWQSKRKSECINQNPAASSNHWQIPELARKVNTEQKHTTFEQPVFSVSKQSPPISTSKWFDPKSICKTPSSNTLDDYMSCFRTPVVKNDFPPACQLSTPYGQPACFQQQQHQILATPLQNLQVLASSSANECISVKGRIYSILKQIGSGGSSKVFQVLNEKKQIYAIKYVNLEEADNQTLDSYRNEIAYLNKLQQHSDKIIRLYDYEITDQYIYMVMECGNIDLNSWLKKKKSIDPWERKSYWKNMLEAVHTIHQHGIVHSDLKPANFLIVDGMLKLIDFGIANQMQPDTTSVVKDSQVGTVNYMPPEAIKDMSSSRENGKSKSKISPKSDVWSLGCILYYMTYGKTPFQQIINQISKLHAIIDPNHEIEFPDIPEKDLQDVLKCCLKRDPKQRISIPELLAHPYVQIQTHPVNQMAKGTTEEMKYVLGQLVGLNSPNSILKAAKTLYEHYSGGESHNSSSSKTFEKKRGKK
The conditions noted are these: read-out: % Activity Remaining.
Source text: as §1

Assay [10] has as its target T3, BRSK1 (Homo sapiens, UniProt Q8TDC3).
T3 sequence (Q8TDC3 1-778): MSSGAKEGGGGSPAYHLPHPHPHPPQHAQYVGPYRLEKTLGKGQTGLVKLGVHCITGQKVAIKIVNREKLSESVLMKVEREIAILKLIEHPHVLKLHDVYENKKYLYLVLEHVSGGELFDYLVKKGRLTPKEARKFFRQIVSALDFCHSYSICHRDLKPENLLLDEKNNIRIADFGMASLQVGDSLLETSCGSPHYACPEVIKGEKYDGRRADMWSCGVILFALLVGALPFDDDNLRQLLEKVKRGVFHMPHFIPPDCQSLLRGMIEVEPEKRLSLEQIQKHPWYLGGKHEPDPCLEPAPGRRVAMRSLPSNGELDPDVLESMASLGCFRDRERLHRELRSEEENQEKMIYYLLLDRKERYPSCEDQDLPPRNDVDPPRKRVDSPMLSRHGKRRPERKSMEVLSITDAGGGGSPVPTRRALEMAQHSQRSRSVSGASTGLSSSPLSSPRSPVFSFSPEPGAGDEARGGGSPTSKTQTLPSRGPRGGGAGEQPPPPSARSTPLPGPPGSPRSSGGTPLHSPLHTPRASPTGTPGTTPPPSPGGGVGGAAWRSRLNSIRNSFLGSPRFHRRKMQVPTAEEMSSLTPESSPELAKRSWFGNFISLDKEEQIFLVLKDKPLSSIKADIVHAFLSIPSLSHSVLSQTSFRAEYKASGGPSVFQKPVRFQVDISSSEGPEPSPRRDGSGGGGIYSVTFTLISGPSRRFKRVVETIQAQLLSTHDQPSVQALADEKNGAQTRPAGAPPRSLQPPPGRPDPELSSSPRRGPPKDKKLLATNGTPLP
The conditions noted are these: read-out: % Activity Remaining.
Source text: as §1

Read-outs that look alike come from different tables or passages of the source.

Chain of BTK (Q06187 whole entry): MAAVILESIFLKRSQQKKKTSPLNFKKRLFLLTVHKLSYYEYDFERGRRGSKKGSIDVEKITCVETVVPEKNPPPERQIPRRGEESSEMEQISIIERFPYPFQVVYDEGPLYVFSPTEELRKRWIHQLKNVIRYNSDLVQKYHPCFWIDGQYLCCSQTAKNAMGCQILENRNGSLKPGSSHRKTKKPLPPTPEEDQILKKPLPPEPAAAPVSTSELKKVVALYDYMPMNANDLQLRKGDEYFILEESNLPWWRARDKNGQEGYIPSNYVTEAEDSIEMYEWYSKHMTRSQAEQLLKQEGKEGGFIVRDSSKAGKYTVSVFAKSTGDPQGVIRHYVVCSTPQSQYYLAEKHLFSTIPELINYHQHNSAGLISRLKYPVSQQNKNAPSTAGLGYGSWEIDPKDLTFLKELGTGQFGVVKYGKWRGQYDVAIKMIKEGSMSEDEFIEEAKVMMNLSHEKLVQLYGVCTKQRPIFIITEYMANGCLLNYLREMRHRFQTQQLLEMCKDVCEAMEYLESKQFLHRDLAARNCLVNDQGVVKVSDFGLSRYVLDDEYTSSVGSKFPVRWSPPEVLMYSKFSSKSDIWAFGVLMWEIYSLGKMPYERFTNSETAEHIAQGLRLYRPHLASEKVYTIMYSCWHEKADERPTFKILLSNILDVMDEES
Chain of VEGFR1 (P17948 27-1338): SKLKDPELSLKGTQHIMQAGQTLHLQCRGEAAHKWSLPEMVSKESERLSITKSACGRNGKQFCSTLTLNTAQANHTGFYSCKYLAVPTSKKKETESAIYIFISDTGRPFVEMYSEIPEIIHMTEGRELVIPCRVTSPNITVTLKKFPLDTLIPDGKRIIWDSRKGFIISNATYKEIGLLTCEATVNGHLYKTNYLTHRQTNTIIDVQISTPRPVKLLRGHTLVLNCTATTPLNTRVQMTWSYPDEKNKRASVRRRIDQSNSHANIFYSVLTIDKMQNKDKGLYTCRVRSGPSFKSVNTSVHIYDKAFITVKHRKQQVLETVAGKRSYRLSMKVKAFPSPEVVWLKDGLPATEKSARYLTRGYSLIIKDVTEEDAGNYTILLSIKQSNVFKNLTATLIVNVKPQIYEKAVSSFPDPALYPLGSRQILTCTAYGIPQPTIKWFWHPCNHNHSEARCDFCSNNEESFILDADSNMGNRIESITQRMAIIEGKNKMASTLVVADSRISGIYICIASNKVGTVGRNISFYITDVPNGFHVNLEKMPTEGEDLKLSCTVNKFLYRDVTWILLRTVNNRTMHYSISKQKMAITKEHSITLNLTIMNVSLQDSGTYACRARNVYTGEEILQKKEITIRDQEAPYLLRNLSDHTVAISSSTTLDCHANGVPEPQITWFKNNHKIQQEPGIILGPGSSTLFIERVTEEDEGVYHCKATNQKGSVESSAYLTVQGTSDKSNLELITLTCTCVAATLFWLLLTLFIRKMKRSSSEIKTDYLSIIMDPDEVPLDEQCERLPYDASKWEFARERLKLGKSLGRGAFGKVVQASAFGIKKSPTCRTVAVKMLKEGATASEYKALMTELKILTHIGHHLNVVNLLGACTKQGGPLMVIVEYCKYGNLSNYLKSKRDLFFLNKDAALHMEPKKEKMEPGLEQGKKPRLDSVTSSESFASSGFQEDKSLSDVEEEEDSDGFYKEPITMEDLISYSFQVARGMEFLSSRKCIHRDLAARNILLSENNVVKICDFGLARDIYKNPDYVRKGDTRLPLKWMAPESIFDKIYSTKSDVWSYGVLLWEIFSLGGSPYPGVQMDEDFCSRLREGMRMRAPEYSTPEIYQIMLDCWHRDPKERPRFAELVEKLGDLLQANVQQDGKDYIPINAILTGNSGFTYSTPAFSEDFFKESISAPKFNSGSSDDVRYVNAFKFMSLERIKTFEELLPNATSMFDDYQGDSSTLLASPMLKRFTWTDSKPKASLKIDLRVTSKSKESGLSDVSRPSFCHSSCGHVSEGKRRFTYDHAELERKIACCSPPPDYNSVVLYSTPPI
Chain of S6K1 (P23443 whole entry): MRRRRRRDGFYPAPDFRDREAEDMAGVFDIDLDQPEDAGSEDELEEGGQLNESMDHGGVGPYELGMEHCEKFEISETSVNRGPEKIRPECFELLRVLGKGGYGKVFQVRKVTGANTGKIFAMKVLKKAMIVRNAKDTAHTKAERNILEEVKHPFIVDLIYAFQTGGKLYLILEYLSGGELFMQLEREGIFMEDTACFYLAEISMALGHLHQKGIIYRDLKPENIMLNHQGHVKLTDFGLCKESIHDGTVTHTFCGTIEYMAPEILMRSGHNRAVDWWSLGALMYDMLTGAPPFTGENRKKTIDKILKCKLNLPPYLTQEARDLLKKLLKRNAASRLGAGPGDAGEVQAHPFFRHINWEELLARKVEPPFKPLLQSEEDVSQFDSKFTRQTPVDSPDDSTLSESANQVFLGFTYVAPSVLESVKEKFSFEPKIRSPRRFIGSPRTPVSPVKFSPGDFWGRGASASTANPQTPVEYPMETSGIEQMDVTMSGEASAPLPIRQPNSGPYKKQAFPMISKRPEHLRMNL
Chain of MAPKAP-K2 (P49137 whole entry): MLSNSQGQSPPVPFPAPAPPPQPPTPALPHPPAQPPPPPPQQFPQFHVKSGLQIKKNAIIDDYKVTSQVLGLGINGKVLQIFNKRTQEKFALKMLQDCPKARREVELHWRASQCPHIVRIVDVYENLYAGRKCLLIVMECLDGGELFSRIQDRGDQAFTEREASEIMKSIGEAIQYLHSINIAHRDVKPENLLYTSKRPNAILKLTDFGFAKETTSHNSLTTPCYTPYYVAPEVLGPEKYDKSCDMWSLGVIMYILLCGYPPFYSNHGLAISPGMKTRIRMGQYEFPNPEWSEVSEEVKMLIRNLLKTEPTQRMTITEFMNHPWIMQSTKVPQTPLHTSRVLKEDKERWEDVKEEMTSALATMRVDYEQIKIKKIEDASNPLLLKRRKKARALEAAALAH
Chain of PAK6 (Q9NQU5 whole entry): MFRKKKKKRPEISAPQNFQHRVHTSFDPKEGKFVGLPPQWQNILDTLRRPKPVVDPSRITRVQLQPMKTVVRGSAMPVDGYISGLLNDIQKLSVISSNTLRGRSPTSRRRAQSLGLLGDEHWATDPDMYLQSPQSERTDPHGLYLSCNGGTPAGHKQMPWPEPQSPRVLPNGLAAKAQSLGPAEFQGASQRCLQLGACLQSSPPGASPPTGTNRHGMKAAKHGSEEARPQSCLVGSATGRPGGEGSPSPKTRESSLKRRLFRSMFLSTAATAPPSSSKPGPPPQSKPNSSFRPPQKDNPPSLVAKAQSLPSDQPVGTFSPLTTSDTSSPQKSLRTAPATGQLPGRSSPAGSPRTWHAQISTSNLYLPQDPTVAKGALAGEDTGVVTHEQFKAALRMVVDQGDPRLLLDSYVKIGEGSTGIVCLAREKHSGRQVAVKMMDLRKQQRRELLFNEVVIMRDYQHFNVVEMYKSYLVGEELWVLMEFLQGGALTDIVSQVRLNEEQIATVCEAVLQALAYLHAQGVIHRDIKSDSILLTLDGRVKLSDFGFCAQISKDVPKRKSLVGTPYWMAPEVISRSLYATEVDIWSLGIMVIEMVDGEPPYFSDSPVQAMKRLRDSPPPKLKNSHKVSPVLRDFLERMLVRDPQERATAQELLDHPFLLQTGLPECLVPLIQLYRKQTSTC

For `COc1ccc(Cl)c(S(=O)(=O)Nc2ccc(-c3nc(OC[C@H]4CNCCO4)c4c(C)n[nH]c4n3)cc2)c1` [290-R, reference compound], the remaining activity at 1 µM in assay [1] turned out to be 82%; in assay [3], 1%; in assay [4], 91%; in assay [5], 101%; in assay [6], 94%; in assay [7], 87%. Moreover, the remaining activity at 1 µM is 113% in assay [8], 76% in [9] and 95% in assay [10]. The “% Activity Remaining” value in [2] stood at 97%.
With `Cc1ccc(F)c(S(=O)(=O)Nc2ccc(-c3nc(OC[C@H]4CNCCO4)c4cn[nH]c4n3)cc2)c1` [308-R, reference compound], the remaining activity at 1 µM in [1] worked out at 95%; in assay [3] it was 1%; in assay [4], 59%; in [5] it was 74%; in [6], 80%; in assay [7], 83%. Moreover, the remaining activity at 1 µM in assay [8] came out at 135%; in assay [9], 91%; in [10] it was 106%. For the same compound, in assay [2], the “% Activity Remaining” value was 83%.
As for `Cc1ccc(F)c(S(=O)(=O)Nc2ccc(-c3nc(OC[C@H]4CN(CCCCCCOCCOCCOCC(=O)N[C@H](C(=O)N5C[C@H](O)C[C@H]5C(=O)NCc5ccc(-c6scnc6C)cc5)C(C)(C)C)CCO4)c4cn[nH]c4n3)cc2)c1` [SGK3-PROTAC1], the remaining activity at 1 µM stood at 120% in [1] (1 µM); 19% in [3] (1 µM); 97% in assay [4] (1 µM); 108% in [5] (1 µM); 98% in assay [6] (1 µM); 86% in [7] (1 µM). Besides, the remaining activity at 1 µM is 121% in assay [8] (1 µM), 89% in [9] (1 µM) and 108% in assay [10] (1 µM). Moreover, the “% Activity Remaining” value in [2] was found to be 113%.
Regarding `Cc1ccc(F)c(S(=O)(=O)Nc2ccc(-c3nc(OC[C@H]4CN(CCCCCCOCCOCCOCC(=O)N[C@H](C(=O)N5C[C@@H](O)C[C@H]5C(=O)NCc5ccc(-c6scnc6C)cc5)C(C)(C)C)CCO4)c4cn[nH]c4n3)cc2)c1` [cisSGK3-PROTAC1], the remaining activity at 1 µM amounted to 103% in [1] (1 µM); 20% in [3] (1 µM); 91% in assay [4] (1 µM); 107% in assay [5] (1 µM); 99% in [6] (1 µM); 92% in assay [7] (1 µM). Moreover, the values for the remaining activity at 1 µM in [8] (1 µM), in [9] (1 µM) and in assay [10] (1 µM) were 118%, 99% and 106%, respectively. The “% Activity Remaining” value in [2] is 122%.

Source of the values: PMC6757289, “Design and Characterization of SGK3-PROTAC1, an Isoform Specific SGK3 Kinase PROTAC Degrader” (ACS Chemical Biology, 2019).
